Results: patent US12496284B2, “Use of itaconate and its derivatives/analogues to induce hair growth” (The Johns Hopkins University, priority 2019, dated 2025)
Entries after “also recorded” stand apart in the source; their conditions may differ.

Key:
TLR3/IL6/STAT3 axis = assay: Treatment of human keratinocytes (NHEKs) with itaconate prodrugs, poly(I:C) challenge, qRT-PCR; assay type: cell-based; conditions: NHEKs pre-treated 2 days, then poly(I:C) for 24 hours, mRNA by qRT-PCR, FIG. 4, FIG. 6
Experimental: Neonatal human epidermal keratinocytes (NHEKs) isolates from neonatal foreskin were seeded at a density of 100,000 cells per well and were maintained in KGM supplemented with growth factors (KGM-GOLD Bullet kit, #192060). Prodrugs were reconstituted in DMSO. NHEKs were pre-treated with either vehicle (0.1% DMSO) or prodrug. After 2 days, NHEKs were treated with […] poly(I:C) for 24 hours.
Total RNA was isolated and purified from cultured NHEKs using the RNeasy Mini Kit (Qiagen, Valencia, CA, #74106). After assessing RNA purity and concentrations using a NanoDrop 2000 UV-Vis spectrophotometer, RNA was converted to cDNA using a reverse-transcription kit and random hexamer primers (Applied Biosystems, #4368814). mRNA expression was determined by qRT-PCR using gene-specific, fluorophore-based TaqMan probes and universal master mix (Applied Biosystems, #4366072). The qRT-PCR reactions were multiplexed using target and reference gene (RPLPO) probes. Relative mRNA fold changes were then quantified using the […] method.
Next, whether itaconate derivatives, such as itaconate prodrugs, have this same capacity was tested. To screen for compounds, those that behaved in vitro with similar properties to itaconate were evaluated. First, the molecular effect of dimethyl itaconate (DI) to blunt dsRNA (PIC; Polyinosinic:polycytidylic acid) effect at increasing TLR3, IL-6, and STAT3 expression was tested.
Next, the ability of synthesized itaconate prodrugs to behave similarly in the in vitro assay was tested. […] Methods are as above, but substituting the […].

C57BL6/J mice = assay: Hair growth (telogen to anagen transition) after topical treatment of shaved mice; assay type: in vivo; conditions: for hair growth compared with JAK inhibitors: 3% each diluted in DMSO, topical, FIG. 9
Experimental: All adult wild-type (C57BL6/J) mice were approximate 8.5 weeks old and obtained from Jackson Labs (#00664). All animals were maintained in an AAALAC (Accreditation of Laboratory Animal Care International)—approved facility at Johns Hopkins University. All experimental procedures were approved by the Institutional Animal Care and Use Committee at Johns Hopkins under the protocol #MO17M298.
(§1) Adult C57BL6/J mice were treated during the refractory period of hair dormancy (telogen) to allow for hair growth (anagen) re-initiation. To determine the anagen re-entry, mice were grossly observed for skin thickening and darkening. Mice were shaved on their dorsal side and the left half the skin was topically treated with either vehicle (DMSO) or prodrug (20% IS-100-142 (compound 5)) with the right side untreated. The treatment regimen was once every other day for a total of two treatment cycles.
In one aspect, the presently disclosed subject matter is directed to compounds that might be able to enhance hair growth. To this end, the ability of dimethyl itaconate to induce the transition from the resting phase of the hair cycle, telogen, to the growing phase of the hair cycle, anagen, in wild type mice was tested.
Finally, the ability of compound 5 to also induce hair growth as observed for DI was tested. […] Here mice were treated as above, except the left side was treated with either compound 5 or DMSO and the right side was left untreated. The small amount of hair growth in the DMSO treated mouse was from the natural anagen cycle beginning.
as §1, with “All adult wild-type (C57BL6/J) mice were approximate 8.5 weeks old and obtained from Jackson Labs. Animals were fed standard mouse diet. […] Adult” for “Adult”, “right” for “left”, “dimethyl itaconate (20%) or with 1% compound 5, 2% compound 5 or 5% compound 5” for “prodrug (20% IS-100-142 (compound 5))”, “left” for “right”, “or three treatments with similar results.” for “treatment cycles.”

[1] = Mouse skin penetration in Alopecia model; assay type: in vivo; conditions: dose 5% w/v
Excerpt: Referring now to FIG. 12, mouse skin penetration in an Alopecia model for IS-100-142 (compound 5) (left panel) and monomethyl itaconate (right panel) is shown.

intact prodrug levels, skin versus plasma ([1]; topical application in DMSO, FIG. 12 left panel) | monomethyl itaconate levels, skin versus plasma ([1]; topical application of IS-100-142 in DMSO, FIG. 12 right panel) | Structure (SMILES) | inhibition of dsRNA (poly(I:C)) effect at increasing TLR3, IL-6 and STAT3 expression (downstream gene targets TLR3, IL6, STAT3, WNT7B) (TLR3/IL6/STAT3 axis) | inhibition of dsRNA (poly(I:C)) effect at increasing TLR3, IL-6 and STAT3 expression (downstream gene targets TLR3, IL6, STAT3, WNT7B) (TLR3/IL6/STAT3 axis; listed as DI) | transition from telogen (resting phase) to anagen (growing phase) of the hair cycle (C57BL6/J mice; 20% dimethyl itaconate, wild type mice, FIG. 5) | inhibition of dsRNA (poly(I:C)) effect at increasing TLR3, IL-6 and STAT3 expression (downstream gene targets TLR3, IL6, STAT3, WNT7B) (TLR3/IL6/STAT3 axis; listed as IS-100-142) | transition of hair follicle from telogen to anagen (hair growth) (C57BL6/J mice; 1%, 2% or 5% compound 5 topical on right half of skin, once every other day, two or three treatments, FIG. 8) | hair growth compared with JAK inhibitors (C57BL6/J mice) | hair growth (C57BL6/J mice; 20% compound 5 in DMSO, topical on left half of shaved dorsal skin, once every other day, two treatment cycles, FIG. 7)
– | – | C=C(CC(=O)OC)C(=O)OC [dimethyl itaconate, reference compound] | blunt dsRNA | potently inhibits those markers | potently induced this transition; also recorded: induces the transition | – | – | – | –
higher in skin versus plasma | higher in skin versus plasma | C=C(CC(=O)OC)C(=O)OCOC(=O)OC(C)C [Compound 5] | potently inhibited the same dsRNA response as DI | – | – | inhibits JAK-STAT signaling most effectively | promote transition of hair follicle from telogen (quiescence phase) to anagen (growing phase); also recorded: induces hair growth | comparable levels as Ruxolitinib and Tofacitinib | induces hair growth
– | – | C[C@@H]1CCN(C(=O)CC#N)C[C@@H]1N(C)c1ncnc2[nH]ccc12 [Tofacitinib, reference compound] | – | – | – | – | – | comparable levels | –
